Measured values reported in patent US20070082939A1, “Methods and compositions for the treatment of neuropathies and related disorders” (priority 2005, published 2007).
“Also recorded” adds a separate entry of the source. Structures can show the parent of a compound that is named as a salt.

What was measured:
[1] = tested on: spinal nerve ligation (Chung) model of neuropathic pain; assay: Spinal nerve ligation (Chung) model, tactile stimulation with electronic Von Frey probe; assay type: in vivo, rats; settings: for effect on mechanical hyperalgesia compared with morphine / mechanical hyperalgesia: force required to induce paw withdrawal, lesioned paw: lesioned paw; for effect on mechanical hyperalgesia compared with morphine: morphine 128 mg/kg p.o., near lethal dose; for mechanical hyperalgesia: force required to induce paw withdrawal, lesioned paw / pain (pressure) threshold in the non-lesioned paw: rats; for mechanical hyperalgesia: force required to induce paw withdrawal, lesioned paw: p.o. at the indicated doses 60 minutes before the test; for pain (pressure) threshold in the non-lesioned paw: p.o., non-lesioned paw (Panel B)
Experimental: (§1) Tight ligature of spinal nerves in rats is associated with hyperalgesia, allodynia and spontaneous pain, and thereby provides an accepted model for peripheral neuropathic pain in humans. Male Sprague-Dawley rats Rj:SD (IOPS Han) weighing 218-260 g at the beginning of the procedure were anesthetized (sodium pentobarbital 40 mg/kg i.p.) and an incision at the L4-S2 level was performed to expose the left L5 and L6 spinal nerves, which were then tightly ligated (4-0 silk suture) distal to the dorsal root ganglion and prior to entrance into the sciatic nerve, as first described by Kim and Chung (Pain 50:355-363, 1992). The wound was then sutured, and the rats received an […]. injection of clamoxyl (100 mg/kg […].) and were allowed to recover. 4 weeks after surgery, when the chronic pain state was fully installed, rats were submitted consecutively to tactile and thermal stimulation of both the non-lesioned and the lesioned hindpaws.
For tactile stimulation, the animal was placed under an inverted acrylic plastic box (18×11.5×13 cm) on a grid floor. The tip of an electronic Von Frey probe (Bioseb, model 1610) was then applied with increasing force to the non-lesioned and lesioned hindpaws and the force inducing paw-withdrawal was automatically recorded. This procedure was carried out 3 times and the mean force per paw was calculated.
(§2) Behavioral testing was carried out 2 weeks after surgery. Prior to receiving drug treatment all animals were submitted to tactile stimulation and assigned to treatment groups matched on the basis of their pain response. 8 rats were studied per group, and the tests were performed blind.
(§3) Bicifadine was evaluated at the indicated doses, administered p.o. 60 minutes before the test, and compared with a vehicle control group. Morphine (128 mg/kg p.o.), used as a reference substance, was administered under the same experimental conditions.
(§4) Data were analyzed by comparing the responses of lesioned paws in the treatment groups with vehicle control group using paired and unpaired Student's t tests.
(§5) In the instant example, another exemplary, substituted 1-aryl-3-azabicyclo[3.1.0]hexane was evaluated for its ability to alleviate symptoms associated with neuropathy in the spinal nerve ligation (Chung) model of neuropathic pain. In this study, a multiply aryl-subsituted compound as described above, 1-(3,4-dichlorophenyl)-3-azabicyclo[3.1.0]hexane was assayed according to the procedures described above in Example 1. The 1-(3,4-dichlorophenyl)-3-azabicyclo[3.1.0]hexane was administered to test animals at the indicated doses p.o. 60 minutes before the test, and compared with a vehicle control group. Data were analyzed by comparing the responses of lesioned paws in the treatment groups with vehicle control group using paired and unpaired Student's t tests, as described in Example 1.

[2] = tested on: spinal nerve ligation (Chung) model of neuropathic pain; assay: Spinal nerve ligation (Chung) model, thermal stimulation (infrared radiant source); assay type: in vivo, rats; settings: for effect on thermal hyperalgesia compared with morphine / thermal hyperalgesia: paw withdrawal latency, lesioned paw: lesioned paw; for effect on thermal hyperalgesia compared with morphine: morphine 128 mg/kg PO, nearly lethal dose; for thermal hyperalgesia: paw withdrawal latency, lesioned paw / response to application of heat in the non-lesioned paw: rats; for thermal hyperalgesia: paw withdrawal latency, lesioned paw: p.o. at the indicated doses 60 minutes before the test; for response to application of heat in the non-lesioned paw: p.o., non-lesioned paw (Panel B)
Experimental: as §1
For thermal stimulation, the apparatus (Model 7200, Ugo Basile, Italy) consists of individual acrylic plastic boxes (17×11×13 cm) placed upon an elevated glass floor. A rat was placed in the box and left free to habituate for 10 minutes. A mobile infrared radiant source (96±10 mW/cm^2) was then focused under the non-lesioned and lesioned hindpaws and the paw-withdrawal latency was automatically recorded. In order to prevent tissue damage the heat source was automatically turned off after 45 seconds.
as §2, §3, §4, §5

[3] = tested on: Streptozotocin (STZ)-induced diabetes rat model of neuropathy; assay: Streptozotocin (STZ)-induced diabetes rat model, paw pressure test; assay type: in vivo, rats; settings: 60 minutes after dosing; for mechanical hyperalgesia: nociceptive threshold (paw pressure): STZ diabetic rats, oral, vs vehicle-treated diabetic rats, hydrochloride
Experimental: Male Sprague Dawley rats Rj:SD (IOPS Han) weighing 218-260 g at the beginning of the experiment, were included in this study for the induction of diabetes. These were divided into vehicle control and streptozotocin treated groups. The rats were housed in a temperature (19.5-24.5° C.) and relative humidity (45-65%) controlled room with a 12-h light/dark cycle, with ad libitum access to filtered tap water and standard pelleted laboratory chow throughout the study.
On day 0, diabetes was induced by intraperitoneal injection of streptozotocin (STZ; 75 mg/kg) to the rats. On day 23, to confirm the presence of diabetes in the STZ-administered rats, hyperglycemia was measured using blood glucose strips. Animals with a blood sugar level lower than […] were not used in further investigations.
Animals found useful for inclusion in additional investigations were dosed orally with bicifadine at the indicated doses, and the nociceptive threshold tested sixty minutes later. The nociceptive threshold was evaluated using a mechanical nociceptive stimulus (paw pressure test). An increasing pressure was applied onto the hindpaw of the animal until the nociceptive response (vocalization or paw withdrawal) was reached. The pain threshold (grams of contact pressure) was measured in both hindpaws.
Results are expressed as the nociceptive threshold (mean±SEM) in grams of contact pressure for each group, calculated from individual nociceptive thresholds (mean values of the nociceptive thresholds obtained for both hindpaws). Statistical significance between the bicifadine treated groups and the vehicle-treated diabetic group was determined by a […], using the residual variance after a one-way analysis of variance (P<0.05).

[4] = tested on: acute inflammatory pain produced by injection of yeast extract into the rat paw; settings: cited from earlier work
[5] = tested on: nociceptive pain following dental surgery; settings: humans; cited from earlier work
[6] = listed as Bicfifadine, hydrochloride
[7] = vs vehicle, listed as bicifadine HCl, hydrochloride
[8] = morphine 128 mg/kg p.o. (nearly lethal dose), vs vehicle

**Q.** With `Cc1ccc([C@]23CNC[C@H]2C3)cc1` (racemic) [bicifadine, (±)-1-(4-methylphenyl)-3-azabicyclo[3.1.0]hexane hydrochloride] as the compound, how does the “force required to induce paw withdrawal, lesioned paw” value ([1]; 50 mg/kg PO, 60 minutes before the test, vs vehicle treated lesioned paws) read?
**A.** significant increase

**Q.** What about the “effect on mechanical hyperalgesia compared with morphine” value ([1]; hydrochloride) of the same compound?
**A.** more potent than morphine

**Q.** And the “effect on mechanical hyperalgesia compared with morphine” value [1, 6]?
**A.** as effective as a near lethal dose morphine

**Q.** What about the “mechanical hyperalgesia: force required to induce paw withdrawal, lesioned paw” value (shortened to “mechanical hyperalgesia: force required”) ([1]; vs vehicle, hydrochloride) of the same compound?
**A.** statistically significant increase; also recorded: effectively suppressed

**Q.** And the “mechanical hyperalgesia: force required” value [1, 7]?
**A.** suppresses mechanical hyperalgesia

**Q.** What about the “pain (pressure) threshold in the non-lesioned paw” value ([1]; hydrochloride) of the same compound?
**A.** does not affect; also recorded: no effect

**Q.** And the “paw withdrawal latency in response to a thermal stimulus, lesioned paw” value ([2]; all doses tested (12.5-100 mg/kg PO), vs vehicle)?
**A.** significant increase

**Q.** And the “effect on thermal hyperalgesia compared with morphine” value ([2]; hydrochloride)?
**A.** approximately equivalent

**Q.** What about the “effect on thermal hyperalgesia compared with morphine” value [2, 6] of the same compound?
**A.** as effective as a near lethal dose morphine

**Q.** What about the “thermal hyperalgesia: paw withdrawal latency, lesioned paw” value (shortened to “thermal hyperalgesia … lesioned paw”) ([2]; vs vehicle, hydrochloride) of the same compound?
**A.** effectively suppressed

**Q.** And the “thermal hyperalgesia … lesioned paw” value [2, 7]?
**A.** suppresses thermal hyperalgesia

**Q.** And the “response to application of heat in the non-lesioned paw” value ([2]; hydrochloride)?
**A.** does not affect; also recorded: no effect

**Q.** What about the “nociceptive threshold (paw pressure)” value ([3]; 12.5 and 25 mg/kg oral, vs vehicle treated diabetic animals) of the same compound?
**A.** significant (P<0.05) increase

**Q.** And the “mechanical hyperalgesia: nociceptive threshold (paw pressure)” value [3]?
**A.** reduces mechanical hyperalgesia; also recorded: effectively alleviates neuropathy symptoms (mechanical hyperalgesia)

**Q.** And the “mechanical hyperalgesia: nociceptive threshold (paw pressure)” value ([3]; listed as Bicifadine)?
**A.** increased the amount of pressure an animal could withstand; also recorded: restore the amount of pressure tolerated in these diabetic rats to values approaching those obtained in control animals

**Q.** What about the “activity in the Randall-Selitto test” value [4] of the same compound?
**A.** potent and active

**Q.** And the “relief of pain following dental surgery compared with codeine and tramadol” value [5]?
**A.** as effective as codeine and tramadol

**Q.** For `CC(=O)Oc1ccccc1C(=O)O` [aspirin], which “activity in the Randall-Selitto test” value [4] is on record?
**A.** active

**Q.** With `COc1ccc2c3c1O[C@H]1[C@@H](O)C=C[C@H]4[C@@H](C2)N(C)CC[C@@]341` [codeine] as the compound, how does the “activity in the Randall-Selitto test” value [4] read?
**A.** active

**Q.** With `Clc1ccc(C23CNCC2C3)cc1Cl` (centres unmarked) [1-(3,4-dichlorophenyl)-3-azabicyclo[3.1.0]hexane] as the compound, how does the “mechanical hyperalgesia: force required” value ([1]; vs vehicle) read?
**A.** potently suppressed tactile allodynia; also recorded: significant increase in the force required to induce paw withdrawal; also recorded: suppresses mechanical hyperalgesia

**Q.** And the “pain (pressure) threshold in the non-lesioned paw” value [1]?
**A.** not due to debilitation of the animal; also recorded: no effect

**Q.** And the “thermal hyperalgesia … lesioned paw” value ([2]; vs vehicle)?
**A.** dose-dependently suppressed thermal hyperalgesia; also recorded: significant increase in paw withdrawal latency; also recorded: suppresses thermal hyperalgesia

**Q.** What about the “response to application of heat in the non-lesioned paw” value [2] of the same compound?
**A.** not due to debilitation of the animal; also recorded: no effect

**Q.** For `CN1CC[C@]23c4c5ccc(O)c4O[C@H]2[C@@H](O)C=C[C@H]3[C@H]1C5` [morphine, reference compound], which “threshold for nociceptive response, mechanical pressure, lesioned paw” value [1, 8] is on record?
**A.** significant increase

**Q.** What about the “threshold for nociceptive response, thermal stimulus, lesioned paw” value [2, 8] of the same compound?
**A.** significant increase

**Q.** And the “activity in the Randall-Selitto test” value [4]?
**A.** active
